Columns and labels:
Format in all cases: in vivo
[1] = test system: beggarticks (hairy beggarticks, Bidens pilosa); assay: Test F pre-/postemergence: beggarticks
Source text: (§1) Seeds of plant species selected from corn (Zea mays), soybean (Glycine max), velvetleaf (Abutilon theophrasti), lambsquarters (Chenopodium album), poinsettia, wild (wild poinsettia, Euphorbia heterophylla), pigweed, palmer (palmer pigweed, Amaranthus palmeri), waterhemp (common waterhemp, Amaranthus rudis), surinam grass (Brachiaria decumbens), crabgrass, Brazil (Brazilian crabgrass, Digitaria horizontalis), panicum, fall (fall panicum Panicum dichotomiflorum), crabgrass, large (large crabgrass, Digitaria sanguinalis), foxtail, giant (giant foxtail, Setaria faberii), foxtail, green (green foxtail Setaria viridis), goosegrass (Eleusine indica), ragweed (common ragweed, Ambrosia elatior), barnyardgrass (Echinochloa crus-galli), sandbur (southern sandbur, Cenchrus echinatus), arrowleaf sida (Sida rhombifolia), ryegrass, Italian (Italian ryegrass, Lolium multiflorum), dayflower, VA (Virginia (VA) dayflower, Commelina virginica), field bindweed (Convolvulus arvensis), cocklebur (common cocklebur, Xanthium strumarium), morningglory (Ipomoea coccinea), nightshade (eastern black nightshade, Solanum ptycanthum), kochia (Kochia scoparia), nutsedge, yellow (yellow nutsedge, Cyperus esculentus), johnsongrass (Sorghum halepense), smartweed (ladysthumb smartweed, Polygonum persicaria), and beggarticks (hairy beggarticks, Bidens pilosa), were planted into a silt loam soil and treated preemergence with test chemicals formulated in a non-phytotoxic solvent mixture which included a surfactant. At the same time, plants selected from these crop and weed species and also pigweed (Amaranthus retroflexus), waterhemp_RES1 (ALS/Triazine resistant common waterhemp, Amaranthus rudis) and waterhemp_RES2 (ALS/HPPD resistant common waterhemp, Amaranthus rudis) were planted in pots containing a planting medium comprising spaghnum peat moss, vermiculite, wetting agent and starter nutrients treated with postemergence applications of some of the test chemicals formulated in the same manner. Plants ranged in height from 2 to 18 cm for postemergence treatments (1- to 4-leaf stage).
(§2) Treated plants and controls were maintained in a greenhouse for 14 to 21 days, after which time all species were compared to controls and visually evaluated. Plant response ratings, summarized in Table E, are based on a scale of 0 to 100 where 0 is no effect and 100 is complete control. A dash (-) response means no test result.

[2] = test system: dayflower, VA (Virginia (VA) dayflower, Commelina virginica); assay: Test F pre-/postemergence: dayflower, VA
Source text: as §1, §2

[3] = test system: foxtail, green (green foxtail Setaria viridis); assay: Test F pre-/postemergence: foxtail, green; settings: Preemergence
Source text: as §1, §2

[4] = test system: lambsquarters (Chenopodium album); assay: Test F pre-/postemergence: lambsquarters; settings: Preemergence
Source text: as §1, §2

[5] = Postemergence, 8 g ai/ha, scale 0 to 100
[6] = Postemergence, 16 g ai/ha, scale 0 to 100
[7] = Postemergence, 31 g ai/ha, scale 0 to 100
[8] = Postemergence, 62 g ai/ha, scale 0 to 100
[9] = Postemergence, 125 g ai/ha, scale 0 to 100
[10] = Preemergence, 16 g ai/ha, scale 0 to 100, 0 no effect, 100 complete control
[11] = Preemergence, 31 g ai/ha, scale 0 to 100, 0 no effect, 100 complete control
[12] = Preemergence, 62 g ai/ha, scale 0 to 100
[13] = Preemergence, 125 g ai/ha, scale 0 to 100
[14] = Preemergence, 250 g ai/ha, scale 0 to 100
[15] = 16 g ai/ha, scale 0 to 100, 0 no effect, 100 complete control
[16] = 31 g ai/ha, scale 0 to 100, 0 no effect, 100 complete control

SMILES | Plant response rating, Beggarticks [1, 12] | Plant response rating, Beggarticks [1, 13] | Plant response rating, Beggarticks [1, 14] | Plant response rating, Foxtail, Green ([3]; 62 g ai/ha, scale 0 to 100) | Plant response rating, Foxtail, Green ([3]; 125 g ai/ha, scale 0 to 100) | Plant response rating, Foxtail, Green ([3]; 250 g ai/ha, scale 0 to 100) | Plant response rating, Lambsquarters ([4]; 62 g ai/ha, scale 0 to 100) | Plant response rating, Lambsquarters ([4]; 125 g ai/ha, scale 0 to 100) | Plant response rating, Lambsquarters ([4]; 250 g ai/ha, scale 0 to 100) | Plant response rating, Dayflower, VA [2, 12] | Plant response rating, Dayflower, VA [2, 13] | Plant response rating, Dayflower, VA [2, 14] | other results
Cc1nn(-c2ccnc(Cl)c2)nc1Cc1ccnc(C(F)(F)F)c1 [Compound 141] |  |  |  |  |  |  |  |  |  |  |  |  | Plant response rating, Beggarticks [1, 5]: 40; Plant response rating, Beggarticks [1, 6]: 40; Plant response rating, Beggarticks [1, 7]: 50; Plant response rating, Beggarticks [1, 8]: 60; Plant response rating, Beggarticks [1, 9]: 75; Plant response rating, Dayflower, VA [2, 5]: 10; Plant response rating, Dayflower, VA [2, 6]: 10; Plant response rating, Dayflower, VA [2, 7]: 35; Plant response rating, Dayflower, VA [2, 8]: 60; Plant response rating, Dayflower, VA [2, 9]: 75
CCc1nn(-c2ccc(F)cc2)nc1Cc1ccnc(C(F)(F)F)c1 [Compound 154] | 0 | 0 | 15 | 100 | 100 | 100 | 75 | 98 | 98 | 25 | 70 | 90 | Plant response rating, Beggarticks [1, 10]: 0; Plant response rating, Beggarticks [1, 11]: 0; Plant response rating, Foxtail, Green [3, 15]: 40; Plant response rating, Foxtail, Green [3, 16]: 75; Plant response rating, Lambsquarters [4, 15]: 0; Plant response rating, Lambsquarters [4, 16]: 30; Plant response rating, Dayflower, VA [2, 10]: 0; Plant response rating, Dayflower, VA [2, 11]: 0
CCc1nn(-c2ccc(C(F)(F)F)cc2)nc1Cc1ccnc(C(F)(F)F)c1 [Compound 155] | 40 | 70 | 80 | 100 | 100 | 100 | 98 | 98 | 98 | 20 | 35 | 60 | 

— patent publication US9302999B2, “Substituted triazoles as herbicides” (E. I. DU PONT DE NEMOURS AND COMPANY, priority 2012, dated 2016)
